Laboratory results taken from US4753984A (priority 1985, dated 1988).

Assays:
[1] = Localization of radiolabelled Daunorubicin drugs in organs of 3 LL tumor-bearing mice; settings: i.v. 100 micrograms Daunorubicin equivalent, 48 or 72 hours after injection
Procedure: The radiolabelled Daunorubicin drugs (14-^14 C) are injected intravenously 14 days after implantation of 10^5 3 LL cells. Either 100 micrograms of free Daunorubicin (5×10^5 cpm), or 100 micrograms of Daunorubicin in macromolecular form (5×10^5 cpm) is injected. Localization is measured after the intravenous injection of various products.
The mice are sacrificed by cervical elongation 48 hours or 72 hours after injection. The organs are removed, dissolved by a tissue solubilizing agent (NCS Amersham) at a rate of 200 mg to 300 mg of organ/ml of solubilizing agent, then counted in a liquid scintillant. […] The results are recapitulated in FIG. 3.

[2] = system: 3 LL cells; assay: In vivo antitumor activity on mice implanted with 3 LL cells (tumor growth and survival); set-up: species or system C 57 BL/6 male mice; settings: for inhibition of tumor growth relative to the control lot: Daunorubicin 7x10 micrograms, polymer 8x200 microgram equivalents of Daunorubicin (i.v. days 2, 6, 10, i.p. days 14-30), FIG. 4
Procedure: The in vivo antitumor activity of the macromolecular drugs is evaluated on C 57 BL/6 male mice aged a total of about 10 weeks. 10^5 3 LL cells are implanted in each mouse by intramuscular injection of 100 microliters of a cellular suspension of 10^6 cells/ml in the right posterior paw.
One lot of 10 mice, serving as a control, is injected with 7×100 microliters of physiologic serum.
One lot of 10 mice is treated with 7×10 micrograms of free Daunorubicin (dosage limited due to the toxicity of the free drug).
After intramuscular injection of the tumoral cells, the macromolecular prodrug is injected intravenously at days 2, 6 and 10, then intraperitoneally at days 14, 18, 22, 26 and 30.
Two parameters are recorded to evaluate the in vivo antitumoral activity: the inhibition of tumor growth and animal survival.

[3] = comparison value, source not given; cited from earlier work
[4] = biological target: chymotrypsin (Bos taurus, UniProt P00766); assay: Proteolyse in vitro: chymotrypsic hydrolyse, liberated daunorubicin derivative analysed by thin layer chromatography; type: biochemical; settings: Tris-HCl buffer 0.05 M, CaCl2 10 mM, pH 8.0; TLC analysis
Procedure: The chymotrypsic hydrolyse is effected in a Tris-HCl buffer 0.05 M, CaCl2 10 mM at pH=8.0.
On analysis, the derivatives of the daunorubicin are liberated after enzymatic hydrolysis, by thin layer chromatography.

[5] = biological target: T1, trypsin (Bos taurus, UniProt P00760); assay: Proteolyse in vitro: trypsic hydrolysis, liberated daunorubicin derivative analysed by thin layer chromatography; type: biochemical; settings: 0.1M sodium bicarbonate, CaCl2 10 mM, pH 8.7; TLC analysis
T1 construct: gene PRSS1
T1 sequence (P00760 24-246): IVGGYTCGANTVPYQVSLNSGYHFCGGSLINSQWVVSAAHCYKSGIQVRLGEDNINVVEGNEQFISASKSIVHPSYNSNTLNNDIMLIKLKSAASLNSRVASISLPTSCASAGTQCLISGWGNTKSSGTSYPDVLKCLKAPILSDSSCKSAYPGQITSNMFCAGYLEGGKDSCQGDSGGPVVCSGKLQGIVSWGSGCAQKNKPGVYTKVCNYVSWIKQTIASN
Procedure: On analysis, the derivatives of the daunorubicin are liberated after enzymatic hydrolysis, by thin layer chromatography. For example:
Trypsic hydrolysis is carried out in a 0.1M solution of sodium bicarbonate, CaCl2, 10 mM at pH, 8.7.

| Molecule | spleen mass / atrophy [1] | inhibition of tumor growth relative to the control lot [2] | derivative of daunorubicin liberated after chymotrypsic hydrolysis [4] | further results |
| --- | --- | --- | --- | --- |
| COc1cccc2c1C(=O)c1c(O)c3c(c(O)c1C2=O)C[C@@](O)(C(C)=O)C[C@@H]3O[C@H]1C[C@H](N)[C@H](O)[C@H](C)O1 [Daunorubicin] | severe atrophy of the spleen | does not influence in a significant manner tumoral growth |  | radioactivity of the spleen [1]: significant accumulation of the radioactivity |
| COc1cccc2c1C(=O)c1c(O)c3c(c(O)c1C2=O)C[C@@](O)(C(=O)CO)C[C@@H]3O[C@H]1C[C@H](N)[C@H](O)[C@H](C)O1 [adriamycin] |  |  |  | time to disappear from plasma [3]: 20 min |
| polycarboxylated linear polymer of 2-N-acryloylamino-2-hydroxymethyl-1,3-propanediol substituted by the -Gly-Gly-L-Tyr-Daunorubicin sequence [Example 1] |  |  | frees the daunorubicin |  |
| polycarboxylated linear polymer of 2-N-acryloylamino-2-hydroxymethyl-1,3-propanediol substituted by the -Gly-Gly-L-Tyr-L-Leu-Daunorubicin sequence [Example 2] | mass comparable to that of the healthy animals | significant inhibition of tumor growth | liberates leucyl-daunorubicin | T/C (survival of the animals treated relative to the control animals) ([2]; 8x200 microgram equivalents of Daunorubicin, FIG. 5): 145 |
| polycarboxylated linear polymer of 2-N-acryloylamino-2-hydroxymethyl-1,3-propanediol substituted by the Gly-L-Phe-L-Ala-L-Leu-Daunorubicin sequence [Example 3] |  |  | frees alaninyl-leucyl-daunorubicin |  |
| polycarboxylated linear polymer of 2-N-acryloylamino-2-hydroxymethyl-1,3-propanediol substituted by the Gly-L-Pro-L-Arg-L-Leu-Daunorubicin sequence [Example 6] |  |  |  | derivative of daunorubicin liberated after trypsic hydrolysis [5]: freeing leucyl-daunorubicin |
